Data published in ChEMBL document CHEMBL1671662, “In vitro activities of telavancin and six comparator agents against anaerobic bacterial isolates” (2009).

Experiments:
[1] = test system: Bacteroides fragilis; experiment: Antibacterial activity against Bacteroides fragilis by CLSI M11-A6 agar dilution method; type: functional
[2] = test system: Eggerthella lenta; experiment: Antibacterial activity against Eggerthella lenta by CLSI M11-A6 agar dilution method; type: functional
[3] = test system: Peptoniphilus asaccharolyticus; experiment: Antibacterial activity against Peptoniphilus asaccharolyticus by CLSI M11-A6 agar dilution method; type: functional
[4] = test system: Clostridium bartlettii; experiment: Antibacterial activity against Clostridium bartlettii by CLSI M11-A6 agar dilution method; type: functional; details: Intestinibacter bartlettii
[5] = test system: Bifidobacterium pseudolongum; experiment: Antibacterial activity against Bifidobacterium pseudolongum by CLSI M11-A6 agar dilution method; type: functional
[6] = test system: Ruminococcus albus; experiment: Antibacterial activity against Ruminococcus albus by CLSI M11-A6 agar dilution method; type: functional; details: Hominimerdicola alba
[7] = test system: Prevotella melaninogenica; experiment: Antibacterial activity against Prevotella melaninogenica by CLSI M11-A6 agar dilution method; type: functional
[8] = test system: Streptococcus anginosus; experiment: Antibacterial activity against Streptococcus anginosus by CLSI M11-A6 agar dilution method; type: functional
[9] = test system: Phocaeicola vulgatus; experiment: Antibacterial activity against Bacteroides vulgatus by CLSI M11-A6 agar dilution method; type: functional
[10] = test system: Clostridium disporicum; experiment: Antibacterial activity against Clostridium disporicum by CLSI M11-A6 agar dilution method; type: functional
[11] = test system: Holdemania filiformis; experiment: Antibacterial activity against Holdemania filiformis by CLSI M11-A6 agar dilution method; type: functional
[12] = test system: Paraclostridium bifermentans; experiment: Antibacterial activity against Clostridium bifermentans by CLSI M11-A6 agar dilution method; type: functional
[13] = test system: Bifidobacterium adolescentis; experiment: Antibacterial activity against Bifidobacterium adolescentis by CLSI M11-A6 agar dilution method; type: functional
[14] = test system: Propionibacterium propionicum; experiment: Antibacterial activity against Propionibacterium propionicus by CLSI M11-A6 agar dilution method; type: functional; details: Arachnia propionica
[15] = test system: Clostridium tertium; experiment: Antibacterial activity against Clostridium tertium by CLSI M11-A6 agar dilution method; type: functional
[16] = test system: Anaerococcus tetradius; experiment: Antibacterial activity against Anaerococcus tetradius by CLSI M11-A6 agar dilution method; type: functional
[17] = test system: Streptococcus constellatus; experiment: Antibacterial activity against Streptococcus constellatus by CLSI M11-A6 agar dilution method; type: functional
[18] = test system: [Clostridium] innocuum; experiment: Antibacterial activity against Clostridium innocuum by CLSI M11-A6 agar dilution method; type: functional
[19] = test system: Bifidobacterium dentium; experiment: Antibacterial activity against Bifidobacterium dentium by CLSI M11-A6 agar dilution method; type: functional
[20] = test system: Ruminococcus flavefaciens; experiment: Antibacterial activity against Ruminococcus flavefaciens by CLSI M11-A6 agar dilution method; type: functional
[21] = test system: Prevotella intermedia; experiment: Antibacterial activity against Prevotella P intermedia by CLSI M11-A6 agar dilution method; type: functional
[22] = test system: Ruminococcus torques; experiment: Antibacterial activity against Ruminococcus torques by CLSI M11-A6 agar dilution method; type: functional; details: Mediterraneibacter torques
[23] = test system: Clostridium scindens; experiment: Antibacterial activity against Clostridium scindens by CLSI M11-A6 agar dilution method; type: functional
[24] = Antibacterial activity against Bifidobacterium infantis by CLSI M11-A6 agar dilution method; type: functional, Bifidobacterium longum subsp. infantis; details: Bifidobacterium longum
[25] = test system: Fusobacterium mortiferum; experiment: Antibacterial activity against Fusobacterium mortiferum by CLSI M11-A6 agar dilution method; type: functional
[26] = test system: Prevotella intermedia; experiment: Antibacterial activity against Prevotella intermedia by CLSI M11-A6 agar dilution method; type: functional
[27] = test system: Thomasclavelia ramosa; experiment: Antibacterial activity against Clostridium ramosum by CLSI M11-A6 agar dilution method; type: functional
[28] = test system: Prevotella buccae; experiment: Antibacterial activity against Prevotella buccae by CLSI M11-A6 agar dilution method; type: functional; details: Segatella buccae
[29] = test system: Clostridium sporogenes; experiment: Antibacterial activity against Clostridium sporogenes by CLSI M11-A6 agar dilution method; type: functional
[30] = test system: Prevotella oris; experiment: Antibacterial activity against Prevotella oris by CLSI M11-A6 agar dilution method; type: functional; details: Segatella oris
[31] = test system: Prevotella denticola; experiment: Antibacterial activity against Prevotella P denticola by CLSI M11-A6 agar dilution method; type: functional
[32] = test system: Bifidobacterium bifidum; experiment: Antibacterial activity against Bifidobacterium bifidum by CLSI M11-A6 agar dilution method; type: functional
[33] = test system: Bifidobacterium breve; experiment: Antibacterial activity against Bifidobacterium breve by CLSI M11-A6 agar dilution method; type: functional
[34] = test system: Clostridium spiroforme; experiment: Antibacterial activity against Clostridium spiroforme by CLSI M11-A6 agar dilution method; type: functional; details: Thomasclavelia spiroformis
[35] = test system: Enterocloster clostridioformis; experiment: Antibacterial activity against Clostridium clostridioforme by CLSI M11-A6 agar dilution method; type: functional
[36] = test system: Hoylesella oralis; experiment: Antibacterial activity against Prevotella oralis by CLSI M11-A6 agar dilution method; type: functional
[37] = test system: Finegoldia magna; experiment: Antibacterial activity against Finegoldia magna by CLSI M11-A6 agar dilution method; type: functional
[38] = test system: Bifidobacterium longum; experiment: Antibacterial activity against Bifidobacterium longum by CLSI M11-A6 agar dilution method; type: functional

CCC[C@@H]1C[C@@H](C(=O)N[C@@H]([C@H]2O[C@H](SC)[C@H](O)[C@@H](O)[C@H]2O)[C@H](C)Cl)N(C)C1 [CLINDAMYCIN]
> 128 µg/mL: MIC90 [1] | MIC90 [3] | MIC50 [9] | MIC90 [9] | MIC90 [16] | MIC90 [18] | MIC90 [37]
4 µg/mL: MIC90 [4] | MIC90 [10] | MIC90 [12] | MIC90 [15] | MIC90 [23] | MIC50 [27] | MIC90 [29] | MIC90 [34]
1 µg/mL: MIC90 [2] | MIC90 [5] | MIC90 [11] | MIC90 [13] | MIC90 [14] | MIC50 [18] | MIC90 [19] | MIC90 [24] | MIC50 [25] | MIC90 [32] | MIC90 [33] | MIC90 [38]
≤ 0.12 µg/mL: MIC50 [2] | MIC50 [5] | MIC50 [6] | MIC [7] | MIC50 [7] | MIC90 [7] | MIC50 [11] | MIC50 [13] | MIC50 [14] | MIC50 [19] | MIC50 [20] | MIC [21] | MIC50 [21] | MIC90 [21] | MIC50 [22] | MIC50 [24] | MIC [26] | MIC50 [26] | MIC90 [26] | MIC [28] | MIC50 [28] | MIC90 [28] | MIC [30] | MIC50 [30] | MIC90 [30] | MIC [31] | MIC50 [31] | MIC90 [31] | MIC50 [32] | MIC50 [33] | MIC [36] | MIC50 [36] | MIC90 [36] | MIC50 [38]
8 µg/mL: MIC90 [27]
2 µg/mL: MIC90 [6] | MIC90 [20] | MIC90 [22] | MIC90 [35]
32 µg/mL: MIC90 [25]
0.5 µg/mL: MIC50 [1] | MIC90 [8] | MIC90 [17]
